Tests used:
Rattus norvegicus [1] = assay: Hypolipidemic activity in CFY Sprague-Dawley rat assessed as serum cholesterol level at 0.25% dietary level administered for 7 days relative to control; assay type: functional
Rattus norvegicus [2] = assay: Hypolipidemic activity in CFY Sprague-Dawley rat assessed as serum triglyceride level at 0.25% dietary level administered for 7 days relative to control; assay type: functional
Rattus norvegicus [3] = assay: Toxicity in CFY Sprague-Dawley rat assessed as body weight gain at 0.25% dietary level administered for 7 days relative to control; assay type: organism-based; settings: in vivo, po, 168 h
Rattus norvegicus [4] = assay: Toxicity in CFY Sprague-Dawley rat assessed as relative liver weight at 0.25% dietary level administered for 7 days relative to control; assay type: organism-based; settings: in vivo, po, 168 h
Rattus norvegicus [5] = assay: Hypolipidemic activity in CFY Sprague-Dawley rat assessed as liver lipid per gm of liver at 0.25% dietary level administered for 7 days relative to control; assay type: functional

Structure (SMILES) | Activity (Rattus norvegicus [1]) [%] | Activity (Rattus norvegicus [2]) [%] | Activity (Rattus norvegicus [3]) [%] | Activity (Rattus norvegicus [4]) [%] | Activity (Rattus norvegicus [5]) [%]
O=Cc1ccc(OCc2ccc(F)cc2)cc1 | -15 | -59 | 16 | 15 | –
N#Cc1ccc(OCc2ccccc2)cc1 | 7 | -31 | -14 | 8 | –
CCOC(=O)c1ccc(OCc2ccc([N+](=O)[O-])cc2)cc1 | -12 | -28 | -15 | -2 | –
CCOC(=O)c1cccc(OCc2ccccc2)c1 | 4 | -30 | 4 | 6 | –
CCOC(=O)c1ccccc1OCc1ccccc1 | 0 | -15 | -26 | -2 | –
COC(=O)Cc1ccc(OCc2ccccc2)c(OC)c1 | -30 | -45 | -68 | 0 | 8
CCCc1ccc(OCc2ccc(C)cc2)c(OC)c1 | -13 | 216 | -18 | 33 | –
COc1cc(C(C)=O)ccc1OCc1ccccc1 | 5 | -51 | -37 | 13 | –
COc1cc(C(=O)O)ccc1OCc1ccccc1 | 0 | -28 | 15 | 6 | –
COc1cc(C=O)ccc1OCc1ccccc1 | -23 | -18 | -16 | 0 | 1
CC(=O)c1ccc(OCc2ccccc2)cc1 | 9 | -46 | -11 | -6 | –
N#Cc1ccc(OCc2ccc(Cl)c(Cl)c2)cc1 | -19 | -6 | -9 | 18 | 8
N#Cc1ccc(OCc2ccc(F)cc2)cc1 | -17 | 1 | 6 | 20 | 7
Cc1ccc(COc2ccc(C#N)cc2)cc1 | -19 | -58 | -29 | 27 | 14
OCc1ccc(OCc2ccccc2)cc1 | -3 | -45 | 11 | 15 | –
CCCCCCCCCCCCc1ccc(OCc2ccccc2)cc1 | 2 | -37 | 9 | 8 | –
CCc1ccc(OCc2ccccc2)cc1 | -17 | -57 | -3 | 20 | -6
Cc1ccc(OCc2ccccc2)cc1C | -3 | -62 | 24 | 13 | –
CCCCCCCCCCCCOC(=O)c1ccc(OCc2ccccc2)cc1 | -11 | -57 | -3 | 6 | –
CCCCCCCCCCOC(=O)c1ccc(OCc2ccccc2)cc1 | -9 | -64 | -17 | 13 | –

Structure (SMILES) | Activity (Rattus norvegicus [1]) [%] | Activity (Rattus norvegicus [2]) [%] | Activity (Rattus norvegicus [3]) [%] | Activity (Rattus norvegicus [4]) [%] | Activity (Rattus norvegicus [5]) [%]
O=C(OCc1ccccc1)c1ccc(OCc2ccccc2)cc1 | -21 | -50 | 6 | 6 | 7
O=C(Oc1ccccc1)c1ccc(OCc2ccccc2)cc1 | 0 | -18 | -1 | 0 | –
CCCCCCOC(=O)c1ccc(OCc2ccccc2)cc1 | -9 | -64 | -3 | 8 | –
O=C(OC1CCCC1)c1ccc(OCc2ccccc2)cc1 | -14 | -29 | -4 | -14 | –
CCCCOC(=O)c1ccc(OCc2ccccc2)cc1 | -10 | -47 | -18 | 4 | –
CCCCCCCCCCCCNC(=O)c1ccc(OCc2ccccc2)cc1 | 1 | -11 | 2 | -5 | –
O=C(NC1CCCCC1)c1ccc(OCc2ccccc2)cc1 | -5 | -18 | -21 | 5 | –
O=C(c1ccc(OCc2ccccc2)cc1)N1CCCCC1 | 14 | 10 | -67 | 2 | –
NC(=O)c1ccc(OCc2ccccc2)cc1 | -1 | -63 | -2 | 13 | –
O=C([O-])c1ccc(OCc2ccccc2)cc1.O=C([O-])c1ccc(OCc2ccccc2)cc1.[Ca+2] | -8 | -53 | -12 | 0 | –
O=C([O-])c1ccc(OCc2ccccc2)cc1.[K+] | -20 | -57 | -12 | 0 | –
Cc1ccc(COc2ccc(C(=O)O)cc2)cc1 | -10 | -57 | -2 | 11 | –
CCOC(=O)c1ccc(OCc2ccccc2C)cc1 | -10 | -58 | -23 | 0 | –
CCOC(=O)c1ccc(OCc2ccc(Cl)cc2)cc1 | -12 | -53 | -7 | 6 | 10
CCOC(=O)c1ccc(OCc2cccc(Cl)c2)cc1 | -19 | -6 | -1 | 10 | -2
CCOC(=O)c1ccc(OCc2ccccc2Cl)cc1 | -7 | -46 | -16 | 7 | –
CCOC(=O)c1ccc(OCc2ccc(Cl)cc2Cl)cc1 | -18 | -42 | -15 | -2 | 8
CCOC(=O)c1ccc(OCc2cc(Cl)ccc2Cl)cc1 | -25 | -56 | 4 | 13 | 22
CCOC(=O)c1ccc(OCc2ccc(Cl)c(Cl)c2)cc1 | -7 | 5 | -5 | 10 | –
O=C(O)c1ccc(OCc2ccc(Cl)c(Cl)c2)cc1 | -9 | -20 | 7 | 18 | –

Structure (SMILES) | Activity (Rattus norvegicus [1]) [%] | Activity (Rattus norvegicus [2]) [%] | Activity (Rattus norvegicus [3]) [%] | Activity (Rattus norvegicus [4]) [%] | Activity (Rattus norvegicus [5]) [%]
CCOC(=O)c1ccc(OCc2ccc(I)cc2)cc1 | -18 | -60 | 7 | 11 | 3
CCOC(=O)c1ccc(OCc2ccc(OC)cc2)cc1 | -7 | -55 | -52 | 20 | –
CCOC(=O)c1ccc(OCc2cccc(OC)c2)cc1 | -10 | -32 | 2 | 4 | –
COc1ccccc1COc1ccc(C(=O)O)cc1 | -29 | 71 | 3 | 17 | –
CCOC(=O)c1ccc(OCc2ccc(OC)c(OC)c2)cc1 | -1 | -33 | -20 | 11 | –
CCOC(=O)c1ccc(COc2ccc(C(=O)OCC)cc2)cc1 | -11 | -60 | 3 | -2 | –
CCOC(=O)Cc1ccc(OCc2cccc(OC)c2OC)cc1 | 1 | -25 | 12 | 20 | –
CCOC(=O)CCc1ccc(OCc2ccccc2F)cc1 | -4 | -49 | 14 | 7 | –
CCOC(=O)CCc1ccc(OCc2cccc(F)c2)cc1 | -11 | 57 | 12 | 7 | –
CCOC(=O)CCc1ccc(OCc2cccc(OC)c2OC)cc1 | 7 | -9 | 4 | 23 | –
CCOC(=O)CCCc1ccc(OCc2ccccc2)cc1 | -10 | -59 | -57 | 9 | –
CCOC(=O)c1ccc(COc2ccc(C)c(C)c2)cc1 | 3 | 109 | -1 | 10 | –
CCOC(=O)c1ccc(COc2ccc(C)cc2C)cc1 | 3 | 2 | 0 | 0 | –
CCOC(=O)c1ccc(COc2ccc(Cl)cc2)cc1 | -13 | 7 | -15 | 42 | –
CCOC(=O)c1ccc(COc2ccc(Br)cc2)cc1 | -6 | -16 | 3 | 24 | –
CCOC(=O)c1ccc(COc2ccc(F)cc2)cc1 | -14 | -50 | 16 | 19 | –
CCOC(=O)c1ccc(COc2ccc(OC)cc2)cc1 | 4 | -57 | -19 | -4 | –
CCOC(=O)c1ccc(COc2ccc(C#N)cc2)cc1 | -12 | -21 | -46 | 20 | –

Source: ChEMBL document CHEMBL3272121, “Hypolipidemic analogues of ethyl 4-benzyloxybenzoate” (J Med Chem, 1977)
